The target in assay [1] is T1, DPP-IV obtained from swine kidney (Sus scrofa, UniProt P22411).
T1 construct: DPP-IV obtained from swine kidney; from tissue; host or cells: swine kidney
The assay can be described thus: Determination of the inhibition action of DPPIV. The format is biochemical. The settings on record: Gly-Pro-p-nitroanilide 0.33 mM, absorbance 405 nm. On the procedure: DPP-IV obtained from swine kidney was dissolved in reaction buffer (50 mM Tris-HCl pH 7.4, 0.1% BSA) at a concentration of 10 mU/mL, and 110 μl of the solution was added. Then, medicament (15 μl) was added thereto, and the mixture was incubated at room temperature for 20 minutes. Gly-Pro-p-nitroanilide (25 μl, final concentration: 0.33 mM) dissolved to 2 mM was added to the mixture to start enzymatic reaction. The reaction time was 20 minutes, and 1N phosphoric acid solution (25 μl) was added to the mixture to quench the reaction.

The subject of a further assay is male C57BL/6N mouse. Put plainly: Effect on glucose tolerance of normal mouse (oral glucose loading). The format is in vivo. The settings on record: 2 h, 30 min before glucose 2 g/kg, AUC0-120, 0.5% MC = 100%, NVP DPP728 10 mg/kg = 0%, lower = better, read-out: Improvement degree of glucose tolerance; for response vs control in vivo at 3 mg/kg: 3 mg/kg oral. On the procedure:
Effect on Glucose Tolerance of Normal Mouse
male C57BL/6N mouse (purchased from CHARLES RIVER JAPAN, INC.)
A suspension of the test compound and NVP DPP728 or 0.5% MC solution (solvent control group) were orally administered at a dose of 10 mL/kg, and after 30 minutes, glucose solution was orally administered at a dose of 10 mL/kg. Glucose was orally administered at a dose of 2 g/kg.
Immediately before the administration of the test substance and NVP DPP728, immediately before the administration of the glucose solution and at 30 minutes, 60 minutes, and 120 minutes after the administration, a tail vein of the mouse was injured to slightly bleed by a razor under no anesthesia. 10 μl of blood was collected and was immediately mixed with 0.6M perchloric acid (140 μl). Glucose in the supernatant obtained by centrifugation (1500 g, 10 minutes, 4° C., refrigerated centrifuge GS-6KR, Beckman Instruments, Inc.) was measured using Glucose CII-Test Wako (Wako Pure Chemical Industries, Ltd.).
Area under the curve of blood glucose level-time (AUC0-120; Area Under the Curve) from the time of administration of glucose to 120 minutes after administration was calculated for respective administration groups, i.e., 0.5% MC solution, NVP DPP728, and the test compounds. Taking the AUC0-120 of the 0.5% MC solution administration group as 100% and the AUC0-120 of NVP DPP728 (10 mg/kg) administration group as 0%, the improvement degree of the glucose tolerance of a test compound was calculated using the following formula: Improvement degree of the glucose tolerance (%)=(AUC0-120 of the test compound−AUC0-120 of the NVP DPP728 (10 mg/kg) administration group)/(AUC0-120 of the 0.5% MC solution administration group−AUC0-120 of the NVP DPP728 (10 mg/kg) administration group)×100. • The lower the % value, the greater the improvement degree of the glucose tolerance will be.

Counter-ions that a name gives are not always drawn.

T1 sequence (P22411 whole entry): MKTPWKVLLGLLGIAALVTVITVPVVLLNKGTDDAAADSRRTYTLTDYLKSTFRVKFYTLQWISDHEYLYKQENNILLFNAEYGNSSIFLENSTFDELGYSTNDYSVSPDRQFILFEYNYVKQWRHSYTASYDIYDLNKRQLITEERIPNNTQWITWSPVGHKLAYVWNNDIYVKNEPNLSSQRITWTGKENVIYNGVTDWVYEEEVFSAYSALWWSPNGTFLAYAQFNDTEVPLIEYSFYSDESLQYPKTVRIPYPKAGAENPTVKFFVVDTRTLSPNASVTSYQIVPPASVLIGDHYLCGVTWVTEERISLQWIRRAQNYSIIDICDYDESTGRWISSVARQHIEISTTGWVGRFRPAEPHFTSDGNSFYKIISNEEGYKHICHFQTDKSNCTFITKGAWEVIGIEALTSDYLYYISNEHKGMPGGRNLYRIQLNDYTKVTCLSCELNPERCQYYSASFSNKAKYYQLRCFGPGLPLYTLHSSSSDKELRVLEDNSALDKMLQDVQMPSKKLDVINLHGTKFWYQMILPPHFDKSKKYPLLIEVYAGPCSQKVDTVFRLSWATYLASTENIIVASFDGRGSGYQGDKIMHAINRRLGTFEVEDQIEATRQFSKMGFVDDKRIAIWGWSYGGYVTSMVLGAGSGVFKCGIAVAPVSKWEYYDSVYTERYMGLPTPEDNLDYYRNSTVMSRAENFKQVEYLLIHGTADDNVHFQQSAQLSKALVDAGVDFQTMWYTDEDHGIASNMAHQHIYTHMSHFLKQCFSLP

As usually defined, the IC50 is the concentration that gives 50% inhibition. In turn, `Cn1c(=O)n(CCc2ccccc2)c(=O)c2c1nc(N1CCCNCC1)n2Cc1ccccc1` [Control compound 1, reference compound] had an IC50 in assay [1] of 24.1 nM. In addition, the response vs control in vivo at 3 mg/kg in the assay with male C57BL/6N mouse amounted to 49.2%. As to `CC#CCn1c(N2CCNCC2)nc2c1c(=O)n(C)c(=O)n2C1CCNC1=O` (stereo not shown) [Example 284, 7-(2-Butynyl)-1-methyl-3-(2-oxopyrrolidin-3-yl)-8-(piperazin-1-yl)-3,7-dihydropurine-2,6-dione hydrochloride], the response vs control in vivo at 3 mg/kg in the assay with male C57BL/6N mouse turned out to be 11.3%.

`CC#CCn1c(N2CCNCC2)nc2c1c(=O)[nH]c(=O)n2CCOCC` [Example 321, 7-(2-Butynyl)-3-(2-ethoxyethyl)-8-(piperazin-1-yl)-3,7-dihydropurine-2,6-dione trifluoroacetate]: the response vs control in vivo at 3 mg/kg in the assay with male C57BL/6N mouse came to 16.9%. Still for that read-out and setting: next, `CC#CCn1c(N2CCNCC2)nc2c1c(=O)n(CC(=O)c1ccccc1)c(=O)n2CCOCC` [Example 323, 7-(2-Butynyl)-3-(2-ethoxyethyl)-1-(2-oxo-2-phenylethyl-8-(piperazin-1-yl)-3,7-dihydropurine-2,6-dione trifluoroacetate]: 0.5%.

For the compound `CC#CCn1c(N2CCNCC2)nc2c1c(=O)n(CCc1ccccc1)c(=O)n2CC(=O)OCC` [Example 326, [7-(2-Butynyl)-2,6-dioxo-1-(2-phenethyl)-8-(piperazin-1-yl)-1,2,6,7-tetrahydropurin-3-yl]acetic acid ethyl ester hydrochloride], the response vs control in vivo at 1 mg/kg with male C57BL/6N mouse (1 mg/kg oral) was -19.2%. In addition, the response vs control in vivo at 3 mg/kg with male C57BL/6N mouse was -30.6%.

These data come from US7074798B2, “Xanthine derivative and DPPIV inhibitor” (Eisai Co., Ltd, priority 2002, dated 2006).
